According to ChEMBL document CHEMBL3885881, “DrugMatrix”:

Species: Rattus norvegicus
Experiment: DrugMatrix - Regimen: Daily Repeat
Type: toxicity, organism-based, Sprague-Dawley
Parameters: regimen Daily Repeat, gender Male, age 6-8 weeks
Settings: in vivo, po, route oral GAVAGE, vehicle 100 % WATER; for ABSOLUTE BASOPHIL / ABSOLUTE EOSINOPHIL / ABSOLUTE LYMPHOCYTE / ABSOLUTE MONOCYTE / ABSOLUTE SEGMENTED NEUTROPHIL / BASOPHIL / EOSINOPHIL / ERYTHROCYTE COUNT / HEMATOCRIT / HEMOGLOBIN / LEUKOCYTE COUNT / LYMPHOCYTE / MEAN CORPUSCULAR HEMOGLOBIN / MEAN CORPUSCULAR HEMOGLOBIN CONCENTRATION / MEAN CORPUSCULAR VOLUME / MONOCYTE / NEUTROPHIL / NUCLEATED RED BLOOD CELLS / PLATELET COUNT: tissue Blood; for ALANINE AMINOTRANSFERASE / ALBUMIN / ALKALINE PHOSPHATASE / ASPARTATE AMINOTRANSFERASE / BLOOD UREA NITROGEN / CARBON DIOXIDE / CHLORIDE / CHOLESTEROL / CREATINE PHOSPHOKINASE / CREATININE / GLUCOSE / LACTATE DEHYDROGENASE / LIPASE / PHOSPHORUS / POTASSIUM / SODIUM / TOTAL BILIRUBIN / TOTAL PROTEIN / URIC ACID: tissue Plasma
[1] = 63 mg/kg, 120 h, dose level High, time 5 day
[2] = […], 72 h, dose 6.3 mg/Kg, dose level Low, time 3 day
[3] = […], 120 h, dose 6.3 mg/Kg, dose level Low, time 5 day

CNCCC=C1c2ccccc2CCc2ccccc21 [NORTRIPTYLINE]
ABSOLUTE BASOPHIL [1]: 0 CELLS/uL
ABSOLUTE EOSINOPHIL [1]: 0 CELLS/uL
ABSOLUTE LYMPHOCYTE [1]: 11759 CELLS/uL
ABSOLUTE MONOCYTE [1]: 53.67 CELLS/uL
ABSOLUTE SEGMENTED NEUTROPHIL [1]: 987.33 CELLS/uL
BASOPHIL [1]: 0%
EOSINOPHIL [1]: 0%
ERYTHROCYTE COUNT [1]: 5.77 x10E6/uL
HEMATOCRIT [1]: 35.97%
HEMOGLOBIN [1]: 14.67 G/DL
LEUKOCYTE COUNT [1]: 12.8 x10E3/uL
LYMPHOCYTE [1]: 91.67%
MEAN CORPUSCULAR HEMOGLOBIN [1]: 25.43 pg
MEAN CORPUSCULAR HEMOGLOBIN CONCENTRATION [1]: 40.77 G/DL
MEAN CORPUSCULAR VOLUME [1]: 62.33 fL
MONOCYTE [1]: 0.33%
NEUTROPHIL [1]: 8%
NUCLEATED RED BLOOD CELLS [1]: 0 /100WBC
PLATELET COUNT [1]: 1245.67 x10E3/uL
ALANINE AMINOTRANSFERASE [1]: 45.67 u/L
ALBUMIN [1]: 4.27 G/DL
ALKALINE PHOSPHATASE [1]: 460.33 u/L
ASPARTATE AMINOTRANSFERASE [1]: 77.33 u/L
BLOOD UREA NITROGEN [1]: 16.33 mg/dL
CARBON DIOXIDE [1]: 29 mmol/L
CHLORIDE [1]: 101.33 MEQ/L
CHOLESTEROL [1]: 78 mg/dL
CREATINE PHOSPHOKINASE [1]: 346.33 u/L
CREATININE [1]: 0.24 mg/dL
GLUCOSE [1]: 205 mg/dL
LACTATE DEHYDROGENASE [1]: 142 u/L
LIPASE [1]: 9.67 u/L
PHOSPHORUS [1]: 11.23 mg/dL
POTASSIUM [1]: 4.99 MEQ/L
SODIUM [1]: 144.43 MEQ/L
TOTAL BILIRUBIN [1]: 0.17 mg/dL
TOTAL PROTEIN [1]: 6.07 G/DL
URIC ACID [1]: 1.6 mg/dL
ABSOLUTE BASOPHIL [2]: 0 CELLS/uL
ABSOLUTE EOSINOPHIL [2]: 47.67 CELLS/uL
ABSOLUTE LYMPHOCYTE [2]: 13905.67 CELLS/uL
ABSOLUTE MONOCYTE [2]: 0 CELLS/uL
ABSOLUTE SEGMENTED NEUTROPHIL [2]: 1246.67 CELLS/uL
BASOPHIL [2]: 0%
EOSINOPHIL [2]: 0.33%
ERYTHROCYTE COUNT [2]: 5.4 x10E6/uL
HEMATOCRIT [2]: 34.5%
HEMOGLOBIN [2]: 13.8 G/DL
LEUKOCYTE COUNT [2]: 15.2 x10E3/uL
LYMPHOCYTE [2]: 90.67%
MEAN CORPUSCULAR HEMOGLOBIN [2]: 25.57 pg
MEAN CORPUSCULAR HEMOGLOBIN CONCENTRATION [2]: 39.97 G/DL
MEAN CORPUSCULAR VOLUME [2]: 63.87 fL
MONOCYTE [2]: 0%
NEUTROPHIL [2]: 9%
NUCLEATED RED BLOOD CELLS [2]: 0.33 /100WBC
PLATELET COUNT [2]: 1291.33 x10E3/uL
ALANINE AMINOTRANSFERASE [2]: 51.33 u/L
ALBUMIN [2]: 3.87 G/DL
ALKALINE PHOSPHATASE [2]: 385.33 u/L
ASPARTATE AMINOTRANSFERASE [2]: 86.33 u/L
BLOOD UREA NITROGEN [2]: 14.33 mg/dL
CARBON DIOXIDE [2]: 34 mmol/L
CHLORIDE [2]: 99.33 MEQ/L
CHOLESTEROL [2]: 71.33 mg/dL
CREATINE PHOSPHOKINASE [2]: 248 u/L
CREATININE [2]: 0.17 mg/dL
GLUCOSE [2]: 136.67 mg/dL
LACTATE DEHYDROGENASE [2]: 250.33 u/L
LIPASE [2]: 10 u/L
PHOSPHORUS [2]: 11.47 mg/dL
POTASSIUM [2]: 6.49 MEQ/L
SODIUM [2]: 143 MEQ/L
TOTAL BILIRUBIN [2]: 0.23 mg/dL
TOTAL PROTEIN [2]: 5.9 G/DL
URIC ACID [2]: 1.23 mg/dL
ABSOLUTE BASOPHIL [3]: 0 CELLS/uL
ABSOLUTE EOSINOPHIL [3]: 0 CELLS/uL
ABSOLUTE LYMPHOCYTE [3]: 14550 CELLS/uL
ABSOLUTE MONOCYTE [3]: 394 CELLS/uL
ABSOLUTE SEGMENTED NEUTROPHIL [3]: 2022.67 CELLS/uL
BASOPHIL [3]: 0%
EOSINOPHIL [3]: 0%
ERYTHROCYTE COUNT [3]: 5.68 x10E6/uL
HEMATOCRIT [3]: 35.47%
HEMOGLOBIN [3]: 14.63 G/DL
LEUKOCYTE COUNT [3]: 16.97 x10E3/uL
LYMPHOCYTE [3]: 85.67%
MEAN CORPUSCULAR HEMOGLOBIN [3]: 25.87 pg
MEAN CORPUSCULAR HEMOGLOBIN CONCENTRATION [3]: 41.2 G/DL
MEAN CORPUSCULAR VOLUME [3]: 62.7 fL
MONOCYTE [3]: 2.33%
NEUTROPHIL [3]: 12%
NUCLEATED RED BLOOD CELLS [3]: 0 /100WBC
PLATELET COUNT [3]: 1314.33 x10E3/uL
ALANINE AMINOTRANSFERASE [3]: 49.33 u/L
ALBUMIN [3]: 4.63 G/DL
ALKALINE PHOSPHATASE [3]: 430.67 u/L
ASPARTATE AMINOTRANSFERASE [3]: 87.33 u/L
BLOOD UREA NITROGEN [3]: 23 mg/dL
CARBON DIOXIDE [3]: 28 mmol/L
CHLORIDE [3]: 98.33 MEQ/L
CHOLESTEROL [3]: 70.33 mg/dL
CREATINE PHOSPHOKINASE [3]: 246 u/L
CREATININE [3]: 0.24 mg/dL
GLUCOSE [3]: 143.33 mg/dL
LACTATE DEHYDROGENASE [3]: 121 u/L
LIPASE [3]: 11 u/L
PHOSPHORUS [3]: 12.13 mg/dL
POTASSIUM [3]: 7.2 MEQ/L
SODIUM [3]: 141.23 MEQ/L
TOTAL BILIRUBIN [3]: 0.27 mg/dL
TOTAL PROTEIN [3]: 6.6 G/DL
URIC ACID [3]: 2.13 mg/dL
